Assays:
[1] = tested on: HIV-1 transcription in 24STNLSG cells; assay: SEAP assay in 24STNLSG cells (latency reactivation); format: cell-based; conditions: 72 h; for Max. fold induction, 24STNLSG: SEAP reporter; for EC2X, 24STNLSG: concentration for 2-fold increase in SEAP activity
Protocol: SupT1-derived 24STNLSG cells were plated at 100,000 cells/well in black bottom/black walled 96-well plates in 50 μl RPMI-1640 medium (without phenol red) containing 10% FBS. Compound was added in 50 μl of identical medium using three-fold dose-response dilutions, in duplicate. […] TNF-α, a nuclear factor-κB (NF-κB) activator known to induce HIV- expression in cellular models, was used as a positive control. Plates were incubated for 72 h at 37°C, 5% CO2. Plates were then sealed and heated to 65°C for 30 min. Plates were brought to room temperature and 50 μl assay buffer (1 mM MgCl2, 10 mM L-homoarginine, 1 M diethylamine hydrochloride) was added to each well and incubated for 5 min at room temperature. To each well, 50 μl of CSPD Substrate (0.4 mM Ready-to-Use with Sapphire-II Enhancer; Applied Biosystems, Foster City, CA) was added. Plates were incubated for 20 min at room temperature and read on a ViewLux microplate imager (Perkin Elmer, Waltham, MA). Curves were fit by non-linear regression using Prism software (GraphPad, San Diego, CA).

[2] = tested on: NF-κB response element reporter in Jurkat cells; assay: NF-κB-responsive Fluc reporter in Jurkat cells; format: cell-based, human; conditions: stably-transfected Jurkat cells, 4 h
Source text: The vector pGL4.32[luc2P/NF-κB-RE/Hygro] was purchased from Promega (Madison, WI), encoding 5 copies of a NF-κB response element driving expression of synthetic firefly luciferase gene, luc2, including a PEST destabilization sequence. Jurkat cells were transfected with this vector using a Gene Pulser® II (Biorad, Hercules, CA) with a 0.4 cm gap cuvette at 0.2 kV and 960 μF. Cells were allowed to recover for three days in RPMI-1640 with 10% FBS and 1% penicillin/streptomycin before selection with 200 μg/ml Hygromycin B for one month. Pooled, stably-transfected cells were plated at 50,000/well in 96-well plates and treated with test compounds in a final concentration of 0.5% DMSO for 4 h at 37°C. Luciferase activity was determined by adding one volume 2× steadylite plus reagent (Perkin Elmer, Waltham, MA) and reading on a ViewLux microplate imager.

HIV-1 LTR = assay: HIV LTR-driven Rluc reporter in HeLa cells; format: cell-based; conditions: transfected HeLa cells, 24 h
Source text: The vector pGL4.77[hRlucP/Hygro] encoding a Renilla luciferase gene including a PEST destabilization sequence, was purchased from Promega (Madison, WI). HIV-1 cDNA was generated from HIVIIIB virus using PureLink® Viral RNA/DNA Mini Kit (Invitrogen). The HIV-1 core promoter region (nucleotides -105 to 60) was amplified from HIVIIIB cDNA using primers designed with NheI (forward: 5ʹ-GCTAGCGGGACTTTCCGCTGGG-3ʹ) and XhoI (reverse: 5ʹ-CTCGAGAGTGGGTTCCCTAGTTAGCCA-3ʹ) flanking restriction site sequences. DNA fragments were generated using Platinum® Taq DNA Polymerase High Fidelity (Invitrogen) and fragment size was verified by electrophoresis using E-Gel® 1.2% agarose (Invitrogen). Fragments were cloned into pCR™2.1 TOPO® (Invitrogen), transformed into One Shot® TOP10 Chemically Competent E. coli (Invitrogen), and selected on LB-agar plates containing 100 μg/ml ampicillin. Individual colonies were grown in LB broth, DNA was isolated using QIAprep® Spin Miniprep Kit (Qiagen), and the inserted fragment was verified by EcoRI digestion followed by electrophoresis using E-Gel® 1.2% agarose (Invitrogen). To insert the HIV-1 LTR into the vector multiple cloning region, the resultant plasmids and pGL4.77[hRlucP/Hygro] were dually digested with NheI and XhoI (New England Biolabs), ligated using ExpressLink™ T4 DNA Ligase (Invitrogen), transformed into One Shot® TOP10 Chemically Competent E. coli (Invitrogen), and selected on LB-agar plates containing 100 μg/ml ampicillin. Clones were picked and DNA isolated using QIAprep® Spin Miniprep Kit (Qiagen) and the inserted fragment was verified by NheI/XhoI digestion followed by electrophoresis using E-Gel® 1.2% agarose (Invitrogen). The resultant plasmid, pGL4.77-LTR, was verified by sequencing at GENEWIZ (South Plainfield, NJ). […] Luciferase activity was quantified using Renilla Luciferase Assay System (Promega, Madison, WI) and results were normalized to the vehicle-treated control.

SMILES | Max. fold induction, 24STNLSG [1] | Max. fold induction, 24STNLSG ([1]; listed as Cmpd 1) [fold] | EC2X, 24STNLSG [1] [µM] | Induction of NF-κB driven reporter (in words) [2] | Transcription driven by the HIV-1 LTR (in words) (HIV-1 LTR)
Nc1ccc2[nH]c(-c3ccc(-c4nc5cc(N)ccc5o4)cc3)nc2c1 [Compound 1, 2-(4-(5-amino-1H-benzimidazol-2-yl)phenyl)benzoxazol-5-amine] | up to 80 fold | 80 | 1.5 ± 0.7 | Neither Compound 1 nor Compound 2 induced | did not significantly increase transcription
Nc1ccc2[nH]c(-c3ccc(-c4nc5ccc(N)cc5o4)cc3)nc2c1 [Compound 2] | 76 fold | – | 2.7 ± 2.3 | Neither Compound 1 nor Compound 2 induced | did not significantly increase transcription

From article PMC5489165, “Identification of benzazole compounds that induce HIV-1 transcription” (PLoS ONE, 2017)
